Numbered stars: 1 amine (or outer) side, 2 acyl side, 3 side chain; on linkers, the order of the positions; unused ones are H or OH. Square brackets hold non-standard residues; d marks the D form. Side chains are listed from the residue outwards. Peptide text beside a SMILES is read from it. * marks the point of attachment. C20 diacid = O=C(O)CCCCCCCCCCCCCCCCCCC(=O)*; γGlu = O=C(O)[C@H](CCC(=O)[*:2])N[*:1]; Trx = NC[C@H]1CC[C@H](C(=O)O)CC1; PEG4 = NCCOCCOCCOCCOCCC(=O)O; AEEA = NCCOCCOCC(=O)O; Aib = CC(C)(N)C(=O)O
Tests used:
human GLP-1 receptor [1] = molecular target: T1, human GLP-1 receptor (Homo sapiens, UniProt P43220); assay: In vitro potency, CRE luciferase reporter gene assay in BHK cells expressing the human GLP-1 receptor; type: cell-based; details: whole cell reporter gene assay, 3 h incubation, no HSA, averages of at least two replicates
T1 construct: expressed in transfected cells; host or cells: membranes prepared from BHK cells (parent line BHKTS13), clone FCW467-12A
Procedure: The purpose of this example is to test the activity, or potency, of the GLP-1 derivatives in vitro. The in vitro potency is the measure of human GLP-1 receptor activation in a whole cell assay.
Semaglutide was included for comparison.
In vitro potency was determined by measuring the response of the human GLP-1 receptor in a reporter gene assay. The assay was performed in a stably transfected BHK cell line that expresses the human GLP-1 receptor and contains the DNA for the cAMP response element (CRE) coupled to a promoter and the gene for firefly luciferase (CRE luciferase). When the human GLP-1 receptor is activated it results in the production of cAMP, which in turn results in the luciferase protein being expressed. When assay incubation is completed the luciferase substrate (luciferin) is added and the enzyme converts luciferin to oxyluciferin to produce bioluminescence. The luminescence is measured as the readout for the assay.
The cells used in this assay (clone FCW467-12A/KZ10-1) were BHK cells with BHKTS13 as a parent cell line. The cells were derived from a clone (FCW467-12A) that expresses the human GLP-1 receptor and were established by further transfection with CRE luciferase to obtain the current clone.
The cells were cultured at 5% CO2 in Cell Culture Medium. They were aliquoted and stored in liquid nitrogen. Before each assay an aliquot is taken up and washed twice in PBS before being suspended at the desired concentration in the assay specific buffer. For 96-well plates the suspension was made to give a final concentration of 5×10^3 cells/well.
The following chemicals were used in the assay: Pluronic F-68 (10%) (Gibco 2404), human serum albumin (HSA) (Sigma A9511), ovalbumin (Sigma A5503), DMEM w/o phenol red (Gibco 11880-028), 1 M Hepes (Gibco 15630), Glutamax 100× (Gibco 35050) and steadylite plus (PerkinElmer 6016757).
Cell Culture Medium consisted of DMEM medium with 10% FBS (Fetal Bovine Serum; Invitrogen 16140-071), 1 mg/ml G418 (Invitrogen 15140-122), 240 nM MTX (methotrexate; Sigma M9929) and 1% pen/strep (penicillin/streptomycin; Invitrogen 15140-122).
Assay Medium consisted of DMEM w/o phenol red, 10 mM Hepes and 1× Glutamax. The Assay Buffer consisted of 2% ovalbumin and 0.2% Pluronic F-68 in Assay Medium.
1) Cell stocks were thawed in a 37° C. water bath.
2) Cells were washed three times in PBS.
3) The cells were counted and adjusted to 5×10^3 cells/50 μl (1×10^5 cells/ml) in Assay Medium. A 50 μl aliquot of cells was transferred to each well in the assay plate.
4) Stocks of the test compounds and reference compounds were diluted to a concentration of 0.2 μM in Assay Buffer. Compounds were diluted 10-fold to give the following concentrations: 2×10^−7 M, […]; 2×10^−9 M, 2×10^−10 M, 2×10^−11 M, 2×10^−12 M, 2×10^−13 M, and 2×10^−14 M. 5) A 50 μl aliquot of compound or blank was transferred from the dilution plate to the assay plate. Compounds were tested at the following final concentrations: 1×10^−7 M, 1×10^−8 M; 1×10^−9 M, 1×10^−10 M, 1×10^−11 M, 1×10^−12 M, 1×10^−13 M, and 1×10^−14 M. 6) The assay plate was incubated for 3 h in a 5% CO2 incubator at 37° C. 7) The assay plate was removed from the incubator and allowed to stand at room temperature for 15 min. 8) A 100 μl aliquot of steadylite plus reagent was added to each well of the assay plate (reagent was light sensitive). 9) Each assay plate was covered with aluminum foil to protect it from light and shaken for 30 min at room temperature. 10) Each assay plate was read in a Packard TopCount NXT instrument. Calculations and Results
The data from the TopCount instrument were transferred to GraphPad Prism software. The software performs a non-linear regression (log(agonist) vs response).
A minimum of two replicates was measured for each sample. The reported values are averages of the replicates.

human GLP-1 receptor [2] = molecular target: T1, human GLP-1 receptor; assay: GLP-1 receptor binding, competitive binding assay (125I-GLP-1, SPA) on isolated membranes;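 note: test compounds added at a range of concentrations to membranes from cells expressing the human GLP-1 receptor, scored by displacement of labelled ligand, read with WGA SPA beads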
[3] = High HSA IC50 (nM), high serum albumin (2.0% HSA final assay concentration)
[4] = Low HSA IC50 (nM), low serum albumin (max. 0.001% final assay concentration)

T1 sequence (P43220 24-463): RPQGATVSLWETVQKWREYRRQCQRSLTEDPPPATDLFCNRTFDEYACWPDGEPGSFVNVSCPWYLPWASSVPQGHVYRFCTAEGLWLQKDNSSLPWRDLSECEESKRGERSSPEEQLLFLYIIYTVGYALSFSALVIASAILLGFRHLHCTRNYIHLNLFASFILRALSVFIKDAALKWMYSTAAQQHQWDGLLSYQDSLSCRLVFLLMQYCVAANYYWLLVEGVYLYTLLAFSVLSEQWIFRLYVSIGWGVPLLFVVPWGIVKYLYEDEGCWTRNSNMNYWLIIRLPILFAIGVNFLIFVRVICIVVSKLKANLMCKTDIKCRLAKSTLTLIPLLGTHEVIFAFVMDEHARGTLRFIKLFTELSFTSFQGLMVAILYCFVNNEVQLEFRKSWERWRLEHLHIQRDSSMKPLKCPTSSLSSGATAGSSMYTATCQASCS

Compound	EC50 (human GLP-1 receptor [1])	IC50 (human GLP-1 receptor [2]; [3])	IC50 (human GLP-1 receptor [2]; [4])
CC[C@H](C)[C@H](NC(=O)[C@H](Cc1ccccc1)NC(=O)[C@H](CCC(=O)O)NC(=O)[C@H](CCCNC(=N)N)NC(=O)[C@H](C)NC(=O)[C@H](C)NC(=O)[C@H](CCC(N)=O)NC(=O)[C@H](CCC(=O)O)NC(=O)[C@H](CCC(=O)O)NC(=O)[C@H](CC(C)C)NC(=O)[C@H](Cc1ccc(O)cc1)NC(=O)[C@H](CO)NC(=O)[C@H](CO)NC(=O)[C@@H](NC(=O)[C@H](CC(=O)O)NC(=O)[C@H](CO)NC(=O)[C@@H](NC(=O)[C@H](Cc1ccccc1)NC(=O)[C@@H](NC(=O)CNC(=O)[C@H](CCC(=O)O)NC(=O)C(C)(C)NC(=O)[C@@H](N)Cc1c[nH]cn1)[C@@H](C)O)[C@@H](C)O)C(C)C)C(=O)N[C@@H](C)C(=O)N[C@@H](Cc1c[nH]c2ccccc12)C(=O)N[C@@H](CC(C)C)C(=O)N[C@H](C(=O)N[C@@H](CCCNC(=N)N)C(=O)NCC(=O)N[C@@H](CCCCNC(=O)COCCOCCNC(=O)COCCOCCNC(=O)CC[C@H](NC(=O)[C@H]1CC[C@H](CNC(=O)CCCCCCCCCCCCCCCCCCC(=O)O)CC1)C(=O)O)C(=O)NCC(=O)N1CCC[C@H]1C(=O)N[C@@H](C)C(=O)N[C@@H](CO)C(=O)N[C@@H](CCC(=O)O)C(=O)N[C@@H](CCCCNC(=O)COCCOCCNC(=O)COCCOCCNC(=O)CC[C@H](NC(=O)[C@H]1CC[C@H](CNC(=O)CCCCCCCCCCCCCCCCCCC(=O)O)CC1)C(=O)O)C(=O)O)C(C)C [Example 15] (H-H[Aib]EGTFTSDVSSYLEEQAAREFIAWLVRGK([AEEA-AEEA-γGlu-Trx-C20 diacid])GPASEK([AEEA-AEEA-γGlu-Trx-C20 diacid])-OH)	0.02 nM	928 nM	1.6 nM
CC[C@H](C)[C@H](NC(=O)[C@H](Cc1ccccc1)NC(=O)[C@H](CCC(=O)O)NC(=O)[C@H](CCCNC(=N)N)NC(=O)[C@H](C)NC(=O)[C@H](C)NC(=O)[C@H](CCC(N)=O)NC(=O)[C@H](CCC(=O)O)NC(=O)[C@H](CCC(=O)O)NC(=O)[C@H](CC(C)C)NC(=O)[C@H](Cc1ccc(O)cc1)NC(=O)[C@H](CO)NC(=O)[C@H](CO)NC(=O)[C@@H](NC(=O)[C@H](CC(=O)O)NC(=O)[C@H](CO)NC(=O)[C@@H](NC(=O)[C@H](Cc1ccccc1)NC(=O)[C@@H](NC(=O)CNC(=O)[C@H](CCC(=O)O)NC(=O)C(C)(C)NC(=O)[C@@H](N)Cc1c[nH]cn1)[C@@H](C)O)[C@@H](C)O)C(C)C)C(=O)N[C@@H](C)C(=O)N[C@@H](Cc1c[nH]c2ccccc12)C(=O)N[C@@H](CC(C)C)C(=O)N[C@H](C(=O)N[C@@H](CCCNC(=N)N)C(=O)NCC(=O)N[C@@H](CCCNC(=N)N)C(=O)NCC(=O)N[C@@H](CCCCNC(=O)CCOCCOCCOCCOCCNC(=O)CC[C@H](NC(=O)[C@H]1CC[C@H](CNC(=O)CCCCCCCCCCCCCCCCCCC(=O)O)CC1)C(=O)O)C(=O)NCC(=O)NCC(=O)N[C@@H](CO)C(=O)N[C@@H](CCCCNC(=O)CCOCCOCCOCCOCCNC(=O)CC[C@H](NC(=O)[C@H]1CC[C@H](CNC(=O)CCCCCCCCCCCCCCCCCCC(=O)O)CC1)C(=O)O)C(=O)O)C(C)C [Example 10, N{Alpha}([Aib8,Glu22,Arg26,Arg34]-GLP-1-(7-37)-peptidyl)-N{Epsilon}3-[2-[2-[2-[2-[[(4S)-4-carboxy-4-[[4-[(19-carboxynonadecanoylamino)methyl]cyclohexanecarbonyl]amino]butanoyl]amino]ethoxy]ethoxy]ethoxy]ethoxy]propanoylLys-Gly-Gly-Ser-N{Epsilon}3-[2-[2-[2-[2-[[(4S)-4-carboxy-4-[[4-[(19-carboxynonadecanoylamino)methyl]cyclohexanecarbonyl]amino]butanoyl]amino]ethoxy]ethoxy]ethoxy]ethoxy]propanoylLys] (H-H[Aib]EGTFTSDVSSYLEEQAAREFIAWLVRGRGK([PEG4-γGlu-Trx-C20 diacid])GGSK([PEG4-γGlu-Trx-C20 diacid])-OH)	0.027 nM	123 nM	1.3 nM
